For one assay, the target named is T1, ClfB (Staphylococcus aureus, UniProt O86476).
T1 construct: The fragment of the ClfB gene (corresponding 197–542 aa) was amplified by PCR; His-tag; made in house; host or cells: E. coli BL21
T1 sequence (O86476 197-542): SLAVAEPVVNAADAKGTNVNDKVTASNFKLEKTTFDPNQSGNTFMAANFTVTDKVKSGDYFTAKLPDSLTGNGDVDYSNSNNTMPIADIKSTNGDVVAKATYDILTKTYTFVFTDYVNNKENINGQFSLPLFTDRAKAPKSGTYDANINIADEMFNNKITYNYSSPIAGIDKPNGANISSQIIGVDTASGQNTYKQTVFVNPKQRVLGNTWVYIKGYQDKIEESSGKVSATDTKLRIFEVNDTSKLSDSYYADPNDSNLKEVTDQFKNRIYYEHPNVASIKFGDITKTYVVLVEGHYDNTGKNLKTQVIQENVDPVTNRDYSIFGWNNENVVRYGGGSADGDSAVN
Briefly: SPR (BIAcore T200) alanine scan of 9-residue GSR peptides and the 6-residue peptide on immobilized ClfB. The conditions noted are these: SPR BIAcore T200, 10°C; ClfB amine-coupled (~5300 RU) on CM5 chip; peptides 31.25-2000 µM in 10 mM HEPES pH 7.4, 150 mM NaCl, 0.005% Tween 20; 30 µl/min; 1:1 Langmuir fit. The assay is classed as binding. As to the method:
A. Panel of dermokine peptides. […] Navy, 2000 µM; Magenta, 1000 µM; Dark cyan or dark yellow, 500 µM; Blue, 250 µM; Red, 125 µM; Green, 62.5 µM; Black, 31.25 µM.
The binding affinities between ClfB and the ten 9-amino–acid peptides and the 6-amino-acid peptide were determined by surface plasmon resonance (SPR) using BIAcore T200 instrument (GE Healthcare) at 10°C. The ClfB protein was immobilized to about 5300 Response Unit (RU) on a research-grade CM5 sensor chip in 10 mM sodium acetate, pH 5.0 by standard amine coupling method. The flow cell 1 was left blank as a reference. […] The ligands were allowed to associate for 60 s and dissociate for 120 s. Data were analyzed with the BIAcore T200 evaluation software by fitting to a 1∶1 Langmuir binding fitting model.
On the technique in general: In SPR one partner is held on a chip, and binding of the other changes the refractive index at the surface.

The target in another assay is T2, ClfB(197–542) wildtype (Staphylococcus aureus, UniProt O86476).
T2 construct: The fragment of the ClfB gene (corresponding 197–542 aa) was amplified by PCR; His-tag; made in house; host or cells: E. coli BL21
T2 sequence (O86476 197-542): T1 sequence (O86476 197-542)
Briefly: SPR (ProteOn XPR36) binding of ClfB(197–542) wild type to immobilized peptide 15 from Dermokine. The conditions noted are these: SPR ProteOn XPR36, peptide captured on NLC Sensor Chip (460 RU), 25°C, 10 mM HEPES pH 7.2, 150 mM NaCl; ClfB(197–542) injected at 87.5-700 µM; repeated three times; read-out: dissociation constant (KD). As to the method: Firstly, Derm was tested for its interaction with ClfB. To this end, we synthesized a 15-amino-acid-peptide (250–264; […], designated as Derm15 hereafter) derived from Derm and then characterized its binding to ClfB using the SPR (Surface Plasmon Resonance) assay. In the assay, ClfB bound to the peptide with a dissociation constant of 2.37 µM (Figure 7A). […] To understand the molecular mechanism underlying this interaction, we solved the crystal structure of ClfB(208–542) bound to the peptide at 2.5 Å resolution. As expected, Derm15 interacts with ClfB in a nearly identical manner with Fg α(316–328) and CK10(499–512) (Figure 7 B). The ClfB^Arg529 forms a hydrogen bond with […] and the C-terminus of N3 forms an extra strand, which is similar as that in the ClfB-Fg α(316–328) and ClfB-CK10(499–512) complexes (Figure 7 C). Mutagenesis studies were conducted to further verify the binding of Derm15 to ClfB. We replaced the residues ClfB^S236, W522 that participate in interactions with the peptide with alanine respectively. The mutant proteins were purified to homogeneity and tested for their interaction with the Derm peptide using SPR.
Figure 7 Dermokine is a potential ligand of ClfB. […] Red, 700 µM; blue, 350 µM; green, 87.5 µM. […]
Binding of ClfB(197–542) to peptide 15 was assessed by SPR using the ProteOn XPR36 equipment (Bio-Rad Laboratories, Inc.). […]

The next assay has as its target T3, Dermokine (Homo sapiens).
T3 chain: SQSGSSGSGSNGDNN
Briefly: SPR.

Where no end group is shown, it is not given here.

A word on the Kd: it is the constant that tells how readily two partners part at equilibrium. On ClfB, GSSGSGANG [Peptide8] had a Kd of 326 µM.

GSSGSG [Peptide11] gave a Kd at ClfB of 833 µM.

As for GSSGSGSAG [Peptide9], the Kd at ClfB stood at 403 µM.

With GASGSGSNG [Peptide3], binding at ClfB was characterised by a dissociation constant (Kd) of 1240 µM.

GSAGSGSNG [Peptide4] showed a Kd on ClfB of 502 µM.

Take GSSGAGSNG [Peptide6]: binding at ClfB was characterised by a dissociation constant (Kd) of 195 µM.

For ASSGSGSNG [Peptide2], on ClfB, the Kd was found to be 1600 µM.

Consider GQSGSSGSGSNGDNN [Derm15], for which the Kd on ClfB(197–542) wildtype amounted to 2.37 µM.

As for GSSASGSNG [Peptide5], the Kd on ClfB worked out at 1140 µM.

As for GSSGSGSNA [Peptide10], the affinity at ClfB, expressed as Kd, was 1170 µM.

As to GSSGSASNG [Peptide7], on ClfB, the Kd stood at 1610 µM.

B1: Clumping factor B 197-542 (protein)
chain: SLAVAEPVVNAADAKGTNVNDKVTASDFKLEKTAFDPNQSGNTFMAANFKVTGQVKSGDYFTAKLPDSVTGNGDVDYSNSNNTMPIADIKSTNGDVVAKATYDILTKTYTFVFTDYVNDKENINGQFSLPLFTDRAKAPKSGTYDANINIADEMFDNKITYNYSSPIAGIDKPNGANISSQIIGVDTASGQNTYKQTVFVNPKQRVLGNTWVYIKGYQDKIEESSGKVSATDTKLRIFEVNDTSKLSDSYYADPNDSNLKEVTGEFKDKISYKYDNVASINFGDINKTYVVLVEGHYDNTGKNLKTQVIQENIDPATGKDYSIFGWNNENVVRYGGGSADGDSAVN
Molecule B1 registered a Kd in the assay with Dermokine of 2.37 µM.
